The test system of one test is Gli-luciferase activity. Nature of the test: Reporter gene assay (RGA) in TMHh12 cells, antagonism of Gli-luciferase activity in the presence of a Smo agonist. The format is cell-based. As to the method: Activity of the compounds was evaluated using a reporter gene assay (RGA) in TMHh12 cells.
The target of test [1] is mouse Smoothened receptor (Mus musculus, UniProt P56726). The test is described as follows: Smo binding assay, displacement of radio-labeled smoothened agonist, filter binding format (mouse). The settings on record: displacement of small molecule agonist of Smoothened, read-out: Mouse Smo bdg., IC50. From the text: A Smo binding assay was developed using radio-labeled smoothened agonist for compound competition.
mouse Smoothened receptor, sequence (P56726 33-793): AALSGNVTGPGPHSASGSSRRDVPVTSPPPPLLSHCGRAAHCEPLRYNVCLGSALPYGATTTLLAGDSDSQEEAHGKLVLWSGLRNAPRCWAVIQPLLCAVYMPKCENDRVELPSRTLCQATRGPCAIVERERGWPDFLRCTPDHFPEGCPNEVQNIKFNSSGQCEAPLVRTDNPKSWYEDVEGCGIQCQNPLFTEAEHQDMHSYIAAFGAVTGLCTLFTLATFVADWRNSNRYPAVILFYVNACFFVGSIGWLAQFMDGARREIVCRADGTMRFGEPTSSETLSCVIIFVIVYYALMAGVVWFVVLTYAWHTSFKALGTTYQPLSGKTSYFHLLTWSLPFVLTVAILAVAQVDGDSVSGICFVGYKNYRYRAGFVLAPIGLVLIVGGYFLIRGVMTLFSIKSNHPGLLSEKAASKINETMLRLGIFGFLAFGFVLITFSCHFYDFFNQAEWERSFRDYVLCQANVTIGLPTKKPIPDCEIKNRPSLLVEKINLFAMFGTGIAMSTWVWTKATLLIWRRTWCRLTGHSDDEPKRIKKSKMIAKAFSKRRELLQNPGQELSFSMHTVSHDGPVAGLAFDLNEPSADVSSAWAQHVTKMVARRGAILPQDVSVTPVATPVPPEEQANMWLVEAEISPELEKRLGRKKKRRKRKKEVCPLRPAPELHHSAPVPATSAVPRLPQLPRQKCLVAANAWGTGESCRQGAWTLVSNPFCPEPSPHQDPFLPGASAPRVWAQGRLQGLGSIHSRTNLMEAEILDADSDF

The target of test [2] is human Smoothened receptor (Homo sapiens, UniProt Q99835). Nature of the test: Smo binding assay, displacement of radio-labeled smoothened agonist, filter binding format (human). Particulars: displacement of small molecule agonist of Smoothened, read-out: Human Smo bdg., IC50. From the text:
A Smo binding assay was developed using radio-labeled smoothened agonist for compound competition. Table 9 lists the IC50 for displacement of a small molecule agonist of Smoothened determined in a filter binding format for the mouse and human Smoothened receptor.

Setting [3] is: 25 nM small molecule Smo agonist, read-out: RGA (25 nM Smo agonist) IC50.
Setting [4] is: read-out: RGA (1 nM Smo agonist) IC50, 1 nM small molecule Smo agonist.

Where two headings read alike, the source gives them in different places.

human Smoothened receptor, sequence (Q99835 28-787): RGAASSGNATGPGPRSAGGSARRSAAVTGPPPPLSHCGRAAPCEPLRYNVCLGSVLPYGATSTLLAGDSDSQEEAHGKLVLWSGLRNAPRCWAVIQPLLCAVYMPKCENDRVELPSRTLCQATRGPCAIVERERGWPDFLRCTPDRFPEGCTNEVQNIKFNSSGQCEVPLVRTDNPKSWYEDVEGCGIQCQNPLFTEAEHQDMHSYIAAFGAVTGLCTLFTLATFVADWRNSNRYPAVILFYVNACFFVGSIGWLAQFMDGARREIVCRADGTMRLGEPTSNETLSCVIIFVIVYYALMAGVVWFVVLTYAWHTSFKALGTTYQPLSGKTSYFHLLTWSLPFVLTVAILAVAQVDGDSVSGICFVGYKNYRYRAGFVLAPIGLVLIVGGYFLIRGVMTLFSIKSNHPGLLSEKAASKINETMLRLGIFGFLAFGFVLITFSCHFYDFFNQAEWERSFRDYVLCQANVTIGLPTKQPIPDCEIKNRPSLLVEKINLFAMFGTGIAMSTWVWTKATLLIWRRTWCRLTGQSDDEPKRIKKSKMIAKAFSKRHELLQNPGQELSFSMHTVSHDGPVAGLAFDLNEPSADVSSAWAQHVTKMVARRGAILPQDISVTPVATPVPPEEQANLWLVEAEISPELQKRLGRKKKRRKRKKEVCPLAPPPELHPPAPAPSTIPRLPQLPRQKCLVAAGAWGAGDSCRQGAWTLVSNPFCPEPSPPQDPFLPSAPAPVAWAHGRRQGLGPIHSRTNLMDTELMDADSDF

For the molecule `NC(=O)c1ccc(N2CCN(c3nnc(Cc4ccccc4)c4ccccc34)CC2)nc1` [Example 53], the IC50 was 100 to 1000 nM in the test with Gli-luciferase activity (setting [3]), under 100 nM in the test with Gli-luciferase activity (setting [4]), 100 to 1000 nM in test [1] and 100 to 1000 nM in test [2].
In the case of `CCOC(=O)c1ccc(N2CCN(c3nnc(Cc4ccccc4)c4ccccc34)CC2)nc1` [Example 54], the IC50 in the test on Gli-luciferase activity (setting [3]) is 100 to 1000 nM; in the test on Gli-luciferase activity (setting [4]), under 100 nM; in test [1], under 100 nM; in test [2], under 100 nM.
For the molecule `CC(C)(O)c1ccc(N2CCN(c3nnc(Cc4ccccc4)c4ccccc34)CC2)nc1` [Example 54a, 2-{6-[4-(4-Benzyl-phthalazin-1-yl)-piperazin-1-yl]-pyridin-3-yl}-propan-2-ol], the IC50 (in the test on Gli-luciferase activity (setting [3]); with Gli-luciferase activity (setting [4]); in test [1]; in test [2]) was under 100 nM throughout.
As to `CN(C)C(=O)c1cnc(N2CCN(c3nnc(Cc4ccccc4)c4ccccc34)CC2)nc1` [Example 54aa], the 50% inhibitory concentration (IC50) is 100 to 1000 nM in the test on Gli-luciferase activity (setting [3]), under 100 nM in the test on Gli-luciferase activity (setting [4]), 100 to 1000 nM in test [1] and 100 to 1000 nM in test [2].
`O=C(c1cnc(N2CCN(c3nnc(Cc4ccccc4)c4ccccc34)CC2)nc1)N1CCOCC1` [Example 54bb]: the IC50 in the test with Gli-luciferase activity (setting [3]) is 100 to 1000 nM; in the test on Gli-luciferase activity (setting [4]), under 100 nM; in test [1], under 100 nM; in test [2] it was 100 to 1000 nM.
Consider `CN(CCO)C(=O)c1cnc(N2CCN(c3nnc(Cc4ccccc4)c4ccccc34)CC2)nc1` [Example 54cc], for which the IC50 was 100 to 1000 nM in the test on Gli-luciferase activity (setting [3]), under 100 nM with Gli-luciferase activity (setting [4]), 100 to 1000 nM in test [1] and 100 to 1000 nM in test [2].
Consider `CCN(CCO)C(=O)c1ccc(N2CCN(c3nnc(Cc4ccccc4)c4ccccc34)CC2)nc1` [Example 54d], for which the IC50 (with Gli-luciferase activity (setting [3]); in the test on Gli-luciferase activity (setting [4]); in test [1]; in test [2]) was under 100 nM each time.
`CN1CCN(C(=O)c2ccc(N3CCN(c4nnc(Cc5ccccc5)c5ccccc45)CC3)nc2)CC1` [Example 54i]: the half-inhibitory concentration (IC50) in the test with Gli-luciferase activity (setting [3]) was 1000 to 10000 nM; with Gli-luciferase activity (setting [4]), 100 to 1000 nM; in test [1], 100 to 1000 nM; in test [2] it was 1000 to 10000 nM.
Consider `O=C(c1ccc(N2CCN(c3nnc(Cc4ccccc4)c4ccccc34)CC2)nc1)N1CCOCC1` [Example 54k], for which the half-inhibitory concentration (IC50) in the test on Gli-luciferase activity (setting [3]) is 100 to 1000 nM; with Gli-luciferase activity (setting [4]) it was under 100 nM; in test [1], under 100 nM; in test [2], 100 to 1000 nM.
On to `O=C(c1ccc(N2CCN(c3nnc(Cc4ccccc4)c4ccccc34)CC2)nc1)N1CC[S+]([O-])C1` (stereo not drawn) [Example 54q], for which the 50% inhibitory concentration (IC50) is 100 to 1000 nM with Gli-luciferase activity (setting [3]), under 100 nM with Gli-luciferase activity (setting [4]), 100 to 1000 nM in test [1] and 100 to 1000 nM in test [2].
Take `COC(=O)CNC(=O)c1ccc(N2CCN(c3nnc(Cc4ccccc4)c4ccccc34)CC2)nc1` [Example 54r]: the IC50 in the test on Gli-luciferase activity (setting [3]) is 100 to 1000 nM; in the test on Gli-luciferase activity (setting [4]) it was 100 to 1000 nM; in test [1], under 100 nM; in test [2], 100 to 1000 nM.
`CN(C)C(=O)c1ccc(N2CCN(c3nnc(Cc4ccccc4)c4ccccc34)CC2)nc1` [Example 54s]: the IC50 with Gli-luciferase activity (setting [3]) is 100 to 1000 nM; with Gli-luciferase activity (setting [4]), under 100 nM; in test [1] it was under 100 nM; in test [2], 100 to 1000 nM.
As to `CN(CCCO)C(=O)c1ccc(N2CCN(c3nnc(Cc4ccccc4)c4ccccc34)CC2)nc1` [Example 54t], the IC50 in the test with Gli-luciferase activity (setting [3]) is 100 to 1000 nM; in the test with Gli-luciferase activity (setting [4]) it was under 100 nM; in test [1] it was under 100 nM; in test [2], 100 to 1000 nM.
With `CC(C)(O)CNC(=O)c1ccc(N2CCN(c3nnc(Cc4ccccc4)c4ccccc34)CC2)nc1` [Example 54u], the half-inhibitory concentration (IC50) in the test with Gli-luciferase activity (setting [3]) is 100 to 1000 nM; with Gli-luciferase activity (setting [4]) it was under 100 nM; in test [1] it was under 100 nM; in test [2], 100 to 1000 nM.
As to `CC(C)(C)OC(=O)NC1CN(C(=O)c2ccc(N3CCN(c4nnc(Cc5ccccc5)c5ccccc45)CC3)nc2)C1` [Example 54v], the half-inhibitory concentration (IC50) with Gli-luciferase activity (setting [3]) lay within 1000 to 10000 nM; in the test with Gli-luciferase activity (setting [4]), 100 to 1000 nM; in test [1] it was 100 to 1000 nM; in test [2], 100 to 1000 nM.

The values are drawn from patent US8536168B2 (Novartis AG, priority 2007, dated 2013).
